From ChEMBL document CHEMBL5727416, “Bicyclic heteroarylaminoalkyl phenyl derivatives as PI3K inhibitors” (2019)

Molecular target: T1, Phosphatidylinositol 4,5-bisphosphate 3-kinase catalytic subunit delta isoform (Homo sapiens, UniProt O00329)
T1 sequence (O00329 whole entry): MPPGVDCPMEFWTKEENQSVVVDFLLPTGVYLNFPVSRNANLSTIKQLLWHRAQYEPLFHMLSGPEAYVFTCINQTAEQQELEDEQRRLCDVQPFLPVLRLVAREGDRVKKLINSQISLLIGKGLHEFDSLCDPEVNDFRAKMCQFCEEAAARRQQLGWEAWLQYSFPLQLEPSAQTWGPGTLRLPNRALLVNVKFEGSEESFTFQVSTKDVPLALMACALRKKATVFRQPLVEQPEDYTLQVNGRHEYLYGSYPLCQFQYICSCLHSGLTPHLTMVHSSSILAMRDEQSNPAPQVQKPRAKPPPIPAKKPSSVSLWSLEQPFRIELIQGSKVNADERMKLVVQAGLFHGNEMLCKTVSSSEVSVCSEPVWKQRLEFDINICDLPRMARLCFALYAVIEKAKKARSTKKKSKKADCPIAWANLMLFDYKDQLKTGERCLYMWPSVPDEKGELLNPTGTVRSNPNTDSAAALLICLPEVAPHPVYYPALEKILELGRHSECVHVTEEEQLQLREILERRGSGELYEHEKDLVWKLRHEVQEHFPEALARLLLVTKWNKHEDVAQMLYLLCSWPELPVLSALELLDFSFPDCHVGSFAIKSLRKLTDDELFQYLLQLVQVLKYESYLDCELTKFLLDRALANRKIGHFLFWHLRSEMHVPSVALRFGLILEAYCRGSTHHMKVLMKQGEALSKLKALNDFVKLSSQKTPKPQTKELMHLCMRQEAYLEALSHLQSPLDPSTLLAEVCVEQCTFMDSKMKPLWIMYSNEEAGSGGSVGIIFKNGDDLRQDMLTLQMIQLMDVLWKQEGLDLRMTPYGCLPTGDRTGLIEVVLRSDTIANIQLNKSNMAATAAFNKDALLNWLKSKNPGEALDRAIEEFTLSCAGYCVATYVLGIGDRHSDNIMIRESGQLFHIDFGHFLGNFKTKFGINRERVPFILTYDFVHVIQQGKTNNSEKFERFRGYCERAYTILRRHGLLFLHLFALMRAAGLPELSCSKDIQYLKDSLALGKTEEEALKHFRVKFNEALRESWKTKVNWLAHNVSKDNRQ
Assay: Scintillation Proximity Assay: PI3Kδ:The kinase reaction was conducted in polystyrene 384-well matrix white plate from Thermo Fisher Scientific in a final volume of 25 μL. Inhibitors were first diluted serially in DMSO and added to the plate wells before the addition of other reaction components. The final concentration of DMSO in the assay was 0.5%. The PI3K assays were carried out at room temperature in 20 mM MOPS, pH 6.7, 10 mM MgCl2, 5 mM DTT and CHAPS 0.03%. Reactions were initiated by the addition of ATP, the final reaction mixture consisted of 20 μM PIP2, 20 μM ATP, 0.2 μCi [γ-33P] ATP, 4 nM PI3Kδ. Reactions were incubated for 210 min and terminated by the addition of 40 μL SPA beads suspended in quench buffer: 150 mM potassium phosphate pH 8.0, 20% glycerol. 25 mM EDTA, 400 μM ATP. The final concentration of SPA beads was 1.0 mg/mL. After the plate sealing, plates were shaken overnight at room temperature and centrifuged at 1800 rpm for 10 minutes, the radioactivity of the product was determined by scintillation counting on Topcount (Perkin-Elmer).

- IC50: < 10 nM
Structure (SMILES): N#CCC(C1CCN(c2nc3cccnc3o2)C1)n1cc(-c2ncnc3[nH]ccc23)cn1 (stereo unspecified)
